{"source": "patent US20250144056A1", "about": "“ANTIMICROBIAL HOST DEFENSE PEPTIDE-INDUCING COMPOSITIONS AND METHODS OF PRODUCTION AND USE THEREOF” (Board of Regents for the Oklahoma Agricultural and …, priority 2022, published 2025)", "key": {"IL-8": {"test_system": "IL-8", "assay": "RT-qPCR of IL-8 in HTC cells with or without LPS", "assay_type": "cell-based, chicken", "procedure": "(§1) Culture and stimulation of macrophages. Two different chicken macrophage cell lines, HTC (24) and HD11 (25), were kindly provided by Dr. Narayan C. Rath and Dr. Hyun Lillehoj of USDA-ARS and maintained in RPMI 1640 containing 10% heat-inactivated FBS, 100 U/ml penicillin, and 100 μg/ml streptomycin and subcultured every 3-4 days. After overnight seeding at 1.5×10^6 cells/well in 6-well cell culture plates, cells were treated with different concentrations of each compound for 24 h or with the indicated concentration of each compound for various lengths of time for dose-response and time-course experiments, respectively. To study the synergy between HMTi/DNMTi and HDACi, different concentrations of an HMTi or DNMTi were added to the cells in the presence or absence of an HDACi for 24 h, followed by RNA isolation and HDP gene expression analysis as described below. HTC cells were also stimulated with butyrate, BIX01294, or their combination for 24 h, followed by 3-h stimulation with 10 ng/ml LPS and subsequent expression analysis.\n(§2) Total RNA extraction and gene expression analysis. Total RNA was extracted using RNAzol (Molecular Biology Research Center, Cincinnati, OH) according to the manufacturer's protocol. Gene expression was performed using reverse transcription-quantitative PCR (RT-qPCR) as previously described (27-29). Reverse transcription was performed with 300 ng of total RNA and Maxima® First Strand cDNA Synthesis Kit (ThermoFisher Scientific, Pittsburgh, PA). The cDNA was then diluted 10-fold with RNase-free water prior to real-time PCR using QuantiTect SYBR® Green PCR Kit (Qiagen, Valencia, CA) in 10-μl reactions using primers specific for HDP, barrier function, and inflammatory cytokine genes as described (27, 29, 30). PCR was run in CFX Connect Real-Time PCR System (Bio-Rad, Hercules, CA) using the following program: 95° C. for 10 min, followed by 40 cycles of 94° C. for 15 sec, 55° C. for 20 sec, and 72° C. for 30 sec. The specificity of PCR reactions was confirmed by the melting curve analysis. The glyceraldehyde-3-phosphate dehydrogenase (GAPDH) gene was used as the reference for data normalization. The fold changes in gene expression in the cells treated with individual compounds or in combinations were calculated relative to the cells treated with an equal volume of RPMI 1640 or DMSO using the ΔΔCt method (31)."}, "AvBD9 [1]": {"test_system": "AvBD9", "assay": "RT-qPCR of AvBD9 in HD11 macrophages", "assay_type": "cell-based, chicken", "conditions": "HD11 cells, 5 μM compound with 2 mM butyrate, 24 h (FIG. 6, Panel A)", "procedure": "(§3) Culture and stimulation of macrophages. Two different chicken macrophage cell lines, HTC (24) and HD11 (25), were kindly provided by Dr. Narayan C. Rath and Dr. Hyun Lillehoj of USDA-ARS and maintained in RPMI 1640 containing 10% heat-inactivated FBS, 100 U/ml penicillin, and 100 μg/ml streptomycin and subcultured every 3-4 days. After overnight seeding at 1.5×10^6 cells/well in 6-well cell culture plates, cells were treated with different concentrations of each compound for 24 h or with the indicated concentration of each compound for various lengths of time for dose-response and time-course experiments, respectively. […]\n(§4) Total RNA extraction and gene expression analysis. […] Gene expression was performed using reverse transcription-quantitative PCR (RT-qPCR) as previously described (27-29). […] The cDNA was then diluted 10-fold with RNase-free water prior to real-time PCR using QuantiTect SYBR® Green PCR Kit (Qiagen, Valencia, CA) in 10-μl reactions using primers specific for HDP, barrier function, and inflammatory cytokine genes as described (27, 29, 30). […] The fold changes in gene expression in the cells treated with individual compounds or in combinations were calculated relative to the cells treated with an equal volume of RPMI 1640 or DMSO using the ΔΔCt method (31)."}, "AvBD9 [2]": {"test_system": "AvBD9", "assay": "RT-qPCR of AvBD9 in peripheral blood mononuclear cells (PBMCs)", "assay_type": "cell-based", "conditions": "chicken PBMCs, 24 h (FIG. 6, Panel F)", "procedure": "Isolation, culture, and stimulation of chicken peripheral blood mononuclear cells (PBMCs). Chicken PBMCs were isolated from EDTA-anticoagulated venous blood collected from 2- to 4-week-old broiler chickens through gradient centrifugation using Histopaque 1077 (Millipore Sigma) as previously described (22, 26). PBMCs were seeded at 3×10^7 cells/well in 6-well cell culture plates and stimulated with different concentrations of an HMTi or DNMTi with or without 1 mM butyrate for 24 h, followed by RNA isolation and HDP gene expression analysis as described below.\nTotal RNA extraction and gene expression analysis. Total RNA was extracted using RNAzol (Molecular Biology Research Center, Cincinnati, OH) according to the manufacturer's protocol. Gene expression was performed using reverse transcription-quantitative PCR (RT-qPCR) as previously described (27-29). […] The cDNA was then diluted 10-fold with RNase-free water prior to real-time PCR using QuantiTect SYBR® Green PCR Kit (Qiagen, Valencia, CA) in 10-μl reactions using primers specific for HDP, barrier function, and inflammatory cytokine genes as described (27, 29, 30). […] The fold changes in gene expression in the cells treated with individual compounds or in combinations were calculated relative to the cells treated with an equal volume of RPMI 1640 or DMSO using the ΔΔCt method (31)."}, "AvBD10 [3]": {"test_system": "AvBD10", "assay": "RT-qPCR of AvBD10 in HTC cells", "assay_type": "cell-based, chicken", "conditions": "2 mM butyrate and at least one concentration of BIX01294, 24 h (FIG. 5)", "procedure": "as §3, §4"}, "AvBD1": {"test_system": "AvBD1", "assay": "RT-qPCR of AvBD1 in HD11 macrophages", "assay_type": "cell-based, chicken", "conditions": "HD11 cells, 5 μM compound with 2 mM butyrate, 24 h (FIG. 6, Panel B)", "procedure": "as §3, §4"}, "AvBD4 [4]": {"test_system": "AvBD4", "assay": "RT-qPCR of AvBD4 in HD11 macrophages", "assay_type": "cell-based, chicken", "conditions": "HD11 cells, 5 μM compound with 2 mM butyrate, 24 h (FIG. 6, Panel C)", "procedure": "as §3, §4"}, "IL-1β": {"test_system": "IL-1β", "assay": "RT-qPCR of IL-1β in HTC cells with or without LPS", "assay_type": "cell-based, chicken", "procedure": "as §1, §2"}, "CLDN1": {"test_system": "CLDN1", "assay": "RT-qPCR of CLDN1 (claudin 1) in HTC cells", "assay_type": "cell-based, chicken", "procedure": "as §1, §2"}, "AvBD10 [5]": {"test_system": "AvBD10", "assay": "RT-qPCR of AvBD10 in HD11 macrophages", "assay_type": "cell-based, chicken", "conditions": "HD11 cells, 5 μM compound with 2 mM butyrate, 24 h (FIG. 6, Panel D)", "procedure": "as §3, §4"}, "chicken HDP genes": {"test_system": "chicken HDP genes", "assay": "RT-qPCR of multiple HDP genes in HTC cells", "assay_type": "cell-based", "procedure": "as §3, §4"}, "AvBD14": {"test_system": "AvBD14", "assay": "RT-qPCR of AvBD14 in HTC cells", "assay_type": "cell-based, chicken", "conditions": "2 mM butyrate and at least one concentration of BIX01294, 24 h (FIG. 5)", "procedure": "as §3, §4"}, "AvBD2": {"test_system": "AvBD2", "assay": "RT-qPCR of AvBD2 in HTC cells", "assay_type": "cell-based, chicken", "conditions": "BIX01294 with 2 mM butyrate, 24 h (FIG. 5)", "procedure": "as §3, §4"}, "AvBD4 [6]": {"test_system": "AvBD4", "assay": "RT-qPCR of AvBD4 in HTC cells", "assay_type": "cell-based, chicken", "conditions": "2 mM butyrate and at least one concentration of BIX01294, 24 h (FIG. 5)", "procedure": "as §3, §4"}, "AvBD8": {"test_system": "AvBD8", "assay": "RT-qPCR of AvBD8 in HTC cells", "assay_type": "cell-based, chicken", "conditions": "2 mM butyrate and at least one concentration of BIX01294, 24 h (FIG. 5)", "procedure": "as §3, §4"}}}
{"smiles": "COc1cc2nc(N3CCCN(C)CC3)nc(NC3CCN(Cc4ccccc4)CC3)c2cc1OC", "note": "[BIX01294]", "values": [{"measurement": "LPS-induced IL-8 expression level, combination with butyrate", "setting": "IL-8; 5 μM BIX01294 + 2 mM butyrate 24 h, then 10 ng/ml LPS 3 h (FIG. 8, Panel E)", "value": "remained elevated"}, {"measurement": "IL-8 synthesis, combination with butyrate", "setting": "IL-8; 5 μM BIX01294 + 2 mM butyrate, without LPS (FIG. 8, Panel E)", "value": "tended to have a synergistic effect"}, {"measurement": "effect on LPS-induced IL-8 expression", "setting": "IL-8; compound alone 24 h, then 10 ng/ml LPS 3 h (FIG. 8, Panel E)", "value": "potentiated"}, {"measurement": "activity in inducing gene expression of IL-8", "setting": "IL-8; compound alone (2 mM butyrate or 5 μM BIX01294), without LPS (FIG. 8, Panel E)", "value": "no or weak activity"}, {"measurement": "synergy in AvBD9 induction with butyrate", "setting": "AvBD9 [1]", "value": "drastic synergy"}, {"measurement": "AvBD9 induction", "setting": "AvBD9 [2]; BIX01294 alone", "value": "induced AvBD9 in a dose-dependent manner"}, {"measurement": "synergy in AvBD9 induction with butyrate", "setting": "AvBD9 [2]; BIX01294 with 1 mM butyrate", "value": "obvious synergy"}, {"measurement": "AvBD10 induction, combination with butyrate", "setting": "AvBD10 [3]", "value": "greater than 100 fold"}, {"measurement": "AvBD1 induction, combination with butyrate", "setting": "AvBD1", "value": "synergistically induced, albeit at lower magnitudes"}, {"measurement": "AvBD4 induction, combination with butyrate", "setting": "AvBD4 [4]", "value": "synergistically induced, albeit at lower magnitudes"}, {"measurement": "effect on LPS-induced IL-1B expression, combination with butyrate", "setting": "IL-1β; 5 μM BIX01294 + 2 mM butyrate 24 h, then 10 ng/ml LPS 3 h (FIG. 8, Panel D)", "value": "significant reduction"}, {"measurement": "IL-1β synthesis, combination with butyrate", "setting": "IL-1β; 5 μM BIX01294 + 2 mM butyrate, without LPS (FIG. 8, Panel D)", "value": "tended to have a synergistic effect"}, {"measurement": "effect on LPS-induced IL-1β expression", "setting": "IL-1β; compound alone 24 h, then 10 ng/ml LPS 3 h (FIG. 8, Panel D)", "value": "opposite effect"}, {"measurement": "activity in inducing gene expression of IL-1β", "setting": "IL-1β; compound alone (2 mM butyrate or 5 μM BIX01294), without LPS (FIG. 8, Panel D)", "value": "no or weak activity"}, {"measurement": "CLDN1 synergy with butyrate after subsequent LPS treatment", "setting": "CLDN1; 5 μM BIX01294 + 2 mM butyrate 24 h, then 10 ng/ml LPS 3 h (FIG. 8, Panel A)", "value": "further enhanced"}, {"measurement": "synergy in CLDN1 expression with butyrate", "setting": "CLDN1; 5 μM BIX01294 + 2 mM butyrate, 24 h (FIG. 8, Panel A)", "value": "marked synergy"}, {"measurement": "activity in increasing CLDN1 expression", "setting": "CLDN1; 5 μM BIX01294 alone, 24 h (FIG. 8, Panel A)", "value": "minimum activity"}, {"measurement": "AvBD10 induction, combination with butyrate", "setting": "AvBD10 [5]", "value": "synergistically induced, albeit at lower magnitudes"}, {"measurement": "induction of the HDP genes detectable in HTC cells, combination with butyrate", "setting": "chicken HDP genes; BIX01294 with 2 mM butyrate, 24 h (FIG. 5)", "value": "all were synergistically induced"}, {"measurement": "induction of most other HDP genes, combination with HDACi", "setting": "chicken HDP genes; BIX01294 with any of the three HDACi (vorinostat, butyrate, mocetinostat), 24 h (FIG. 7, Panel B)", "value": "synergistically induced"}, {"measurement": "AvBD14 induction, combination with butyrate", "setting": "AvBD14", "value": "greater than 100 fold"}, {"measurement": "AvBD2 upregulation, combination with butyrate", "setting": "AvBD2", "value": "2- to 3 fold"}, {"measurement": "AvBD4 induction, combination with butyrate", "setting": "AvBD4 [6]", "value": "greater than 100 fold"}, {"measurement": "AvBD8 induction, combination with butyrate", "setting": "AvBD8", "value": "greater than 100 fold"}]}
